Results as given in patent publication US20130029928A1 (priority 2010, published 2013).
Where two headings read alike, the source gives them in different places.

Experiment: Phase I study CXR1002-001: plasma pharmacokinetics (LC-MS/MS)
Type: in vivo, human
Details: human, plasma, oral; for concentration at 843 h / concentration at 844 h / concentration at 864 h / concentration at 3 h / concentration at 4 h / concentration at 24 h / concentration at 168 h / concentration at 170 h / concentration at 171 h / concentration at 192 h / concentration at 336 h / concentration at 338 h / concentration at 339 h / concentration at 340 h / concentration at 360 h / concentration at 504 h / concentration at 506 h / concentration at 507 h / concentration at 508 h / concentration at 528 h / concentration at 672 h / concentration at 674 h / concentration at 675 h / concentration at 676 h / concentration at 696 h / concentration at 840 h / concentration at 842 h / concentration at 2 h / concentration at 172 h: read-out: Concentration; for concentration at 864 h: 864 hr (Day 37); for concentration at 24 h: 24 hr (Day 2); for concentration at 168 h: 168 hr (Day 8); for concentration at 336 h: 336 hr (Day 15); for concentration at 504 h: 504 hr (Day 22); for concentration at 528 h: 528 hr (Day 23); for concentration at 672 h: 672 hr (Day 29); for concentration at 840 h: 840 hr (Day 36)
Text: PK samples, PD (fasting) samples, blood glucose, and blood triglyceride samples, were taken over a 6-week period.
Dose limiting toxicity (DLT) will be based on the toxicity assessments over the first 3-week period of the repeat dosing schedule. PK samples (single blood sample) were taken on the following basis: • Every 6 weeks during the repeat dosing phase • If dosing is interrupted or stopped, samples will be taken at intervals according to patient convenience • PK sampling for safety evaluation may take place at any time, as clinically indicated
Plasma samples were collected after the single 50 mg dose at the following timepoints: Pre-dose, and then 0.25, 0.5, 0.75, 1, 1.5, 2, 3, 4, 6, 24, 48, and 72 hours after administration and then once weekly at weeks 2, 3, 4, 5, and 6 (days 8, 15, 22, 29, and 36). For patients treated with the weekly repeat dose, plasma samples were collected at the following timepoints: Pre-dose and then 2, 3, 4 and 24 hours after administration for a total of 6 weeks. Thereafter a single sample was collected every 6 weeks for monitoring of exposure during long term treatment. Plasma samples were processed at site and stored at −80° C. prior to batch shipment to the analytical laboratory.

[1] = 300 mg, Patient 014 Dose 300 mg
[2] = 450 mg, Patient 015 Dose 450 mg
[3] = 450 mg, Patient 016 Dose 450 mg
[4] = 450 mg, Patient 017 Dose 450 mg
[5] = 600 mg, Patient 018, 600 mg, person
[6] = 600 mg, Patient 020, 600 mg, person
[7] = 600 mg, Patient 021, 600 mg, person

Work on `O=C(O)C(F)(F)C(F)(F)C(F)(F)C(F)(F)C(F)(F)C(F)(F)C(F)(F)F` [CXR1002] yielded a concentration at 843 h [1] of 520 µM, a concentration at 844 h [1] of 563 µM and a concentration at 864 h [1] of 488 µM. For the same compound, the concentration at 12 week (300 mg, Patient 014 Dose 300 mg, Week 12) was 890 µM, the concentration at 18 week (300 mg, Patient 014 Dose 300 mg, Week 18) was 980 µM and the concentration at 3 h [2] was 231 µM. The concentration at 4 h [2] was 217 µM, the concentration at 24 h [2] was 126 µM and the concentration at 168 h [2] was 138 µM. The concentration at 170 h [2] was 325 µM, the concentration at 171 h [2] was 314 µM and the concentration at 192 h (450 mg, Patient 015 Dose 450 mg, 192 hr (Day 9)) was 294 µM. The concentration at 336 h [2] was 286 µM, the concentration at 338 h [2] was 463 µM and the concentration at 339 h [2] was 393 µM. It also gave a concentration at 340 h [2] of 424 µM, a concentration at 360 h (450 mg, Patient 015 Dose 450 mg, 360 hr (Day 16)) of 412 µM and a concentration at 504 h [2] of 387 µM. For the same compound, the concentration at 506 h [2] was 579 µM, the concentration at 507 h [2] was 548 µM and the concentration at 508 h [2] was 513 µM. For the same compound, the concentration at 528 h [2] was 551 µM, the concentration at 672 h [2] was 544 µM and the concentration at 674 h [2] was 622 µM. It also gave a concentration at 675 h [2] of 633 µM, a concentration at 676 h [2] of 675 µM and a concentration at 696 h (450 mg, Patient 015 Dose 450 mg, 696 hr (Day 30)) of 708 µM. It also gave a concentration at 840 h [2] of 575 µM, a concentration at 842 h [2] of 703 µM and a concentration at 843 h [2] of 655 µM. The concentration at 844 h [2] was 801 µM, the concentration at 864 h [2] was 592 µM and the concentration at 2 h [3] was 108 µM. For the same compound, the concentration at 3 h [3] was 126 µM, the concentration at 4 h [3] was 88.1 µM and the concentration at 24 h [3] was 164 µM. For the same compound, the concentration at 170 h [3] was 328 µM, the concentration at 171 h [3] was 255 µM and the concentration at 172 h [3] was 244 µM. For the same compound, the concentration at 192 h (450 mg, Patient 016 Dose 450 mg, 192 hr (Day 9)) was 348 µM, the concentration at 336 h [3] was 287 µM and the concentration at 338 h [3] was 418 µM. For the same compound, the concentration at 339 h [3] was 454 µM, the concentration at 340 h [3] was 442 µM and the concentration at 360 h (450 mg, Patient 016 Dose 450 mg, 360 hr (Day 16)) was 471 µM. The concentration at 504 h [3] was 546 µM, the concentration at 506 h [3] was 693 µM and the concentration at 507 h [3] was 721 µM. The concentration at 508 h [3] was 698 µM, the concentration at 528 h [3] was 692 µM and the concentration at 672 h [3] was 605 µM. The concentration at 674 h [3] was 907 µM, the concentration at 675 h [3] was 745 µM and the concentration at 676 h [3] was 732 µM. It also gave a concentration at 696 h (450 mg, Patient 016 Dose 450 mg, 696 hr (Day 30)) of 871 µM, a concentration at 2 h [4] of 99.7 µM and a concentration at 3 h [4] of 136 µM. It also gave a concentration at 4 h [4] of 163 µM, a concentration at 336 h [4] of 216 µM and a concentration at 338 h [4] of 325 µM. It also gave a concentration at 339 h [4] of 342 µM, a concentration at 360 h (450 mg, Patient 017 Dose 450 mg, 360 hr) of 258 µM and a concentration at 672 h [4] of 404 µM. The concentration at 674 h [4] was 451 µM, the concentration at 675 h [4] was 497 µM and the concentration at 676 h [4] was 485 µM. The concentration at 696 h (450 mg, Patient 017 Dose 450 mg, 696 hr) was 483 µM, the concentration at 2 h [5] was 339 µM and the concentration at 3 h [5] was 280 µM. For the same compound, the concentration at 4 h [5] was 248 µM, the concentration at 24 h [5] was 213 µM and the concentration at 168 h [5] was 181 µM. For the same compound, the concentration at 170 h [5] was 398 µM, the concentration at 171 h [5] was 407 µM and the concentration at 192 h (600 mg, Patient 018, 600 mg, person, 192 hr (day 9)) was 386 µM. For the same compound, the concentration at 336 h [5] was 356 µM, the concentration at 338 h [5] was 551 µM and the concentration at 339 h [5] was 563 µM. The concentration at 340 h [5] was 591 µM, the concentration at 360 h (600 mg, Patient 018, 600 mg, person, 360 hr (Day 16)) was 554 µM and the concentration at 2 h [6] was 208 µM. The concentration at 4 h [6] was 180 µM, the concentration at 24 h [6] was 413 µM and the concentration at 168 h [6] was 125 µM. For the same compound, the concentration at 170 h [6] was 327 µM, the concentration at 171 h [6] was 310 µM and the concentration at 172 h [6] was 279 µM. The concentration at 192 h (600 mg, Patient 020, 600 mg, person, 192 hr (day 9)) was 268 µM, the concentration at 336 h [6] was 272 µM and the concentration at 338 h [6] was 474 µM. For the same compound, the concentration at 339 h [6] was 434 µM, the concentration at 340 h [6] was 438 µM and the concentration at 360 h (600 mg, Patient 020, 600 mg, person, 360 hr (Day 16)) was 410 µM. For the same compound, the concentration at 504 h [6] was 441 µM, the concentration at 506 h [6] was 477 µM and the concentration at 507 h [6] was 526 µM. The concentration at 508 h [6] was 536 µM, the concentration at 528 h [6] was 563 µM and the concentration at 672 h [6] was 540 µM. It also gave a concentration at 674 h [6] of 547 µM, a concentration at 675 h [6] of 603 µM and a concentration at 676 h [6] of 652 µM. For the same compound, the concentration at 696 h (600 mg, Patient 020, 600 mg, person, 696 hr (Day 30)) was 615 µM, the concentration at 840 h [6] was 582 µM and the concentration at 842 h [6] was 700 µM. It also gave a concentration at 843 h [6] of 764 µM, a concentration at 844 h [6] of 770 µM and a concentration at 864 h [6] of 703 µM. The concentration at 2 h [7] was 77.2 µM, the concentration at 3 h [7] was 121 µM and the concentration at 24 h [7] was 203 µM. It also gave a concentration at 168 h [7] of 218 µM, a concentration at 170 h [7] of 504 µM and a concentration at 171 h [7] of 417 µM. It also gave a concentration at 172 h [7] of 451 µM.
